The target in test [1] is T1, histamine H4 receptor (Homo sapiens, UniProt Q9H3N8).
T1 construct: expressed in transfected cells
Briefly: in vitro assay of histamine H4 activity using FLIPR-Ca+2 flux. The format is cell-based. To be noted: HEK-293 cells stably expressing histamine H4 receptor and Gαqi5, Fluo-4; Kb for antagonists and inverse agonists, EC50 for partial agonists. The text has this:
There are many methods available to show the effectiveness of compounds as histamine H4 receptor ligands. Histamine H4 receptors from mammalian species have been cloned. Methods to clone, express, and assess the potency and functional activity of such cloned genes are well known to those skilled in the art of molecular biology. Examples of methods of cloning and expressing histamine H4 receptors, and of assessing the potency and functional activity are described in Nguyen, et al. Molecular Pharmacology (2001) vol. 59 pp. 427-433; Zhu, et al. Molecular Pharmacology (2001) vol. 59 pp. 434-441; Coge, et al., Biochemical and Biophysical Research Communications (2001) vol. 284, pp. 301-309; Liu, et al. Molecular Pharmacology (2001) vol. 59 pp. 420-426; Liu, et al. Journal of Pharmacology and Experimental Therapeutics (2001) v. 299, pp. 121-130; and Thurmond, et al. Journal of Pharmacology and Experimental Therapeutics (2004) v. 309, pp. 404-413. In the present case, to determine the potency and effectiveness of representative compounds of this invention as histamine-H4 receptor ligands (H4 receptor ligands), the following tests were conducted according to previously described methods (see Esbenshade, et al., Biochemical Pharmacology (2004), vol. 68, pp. 933-945, and in Krueger, et al., Journal of Pharmacology and Experimental Therapeutics (2005) v. 314, pp. 271-281): histamine H4 receptors were cloned and stably expressed in HEK-293 (human embryonic kidney) cells coexpressing a Gαqi5. Before testing, cells are loaded with a Ca+^2 sensitive fluorescent dye, in this case Fluo-4 (Invitrogen, Carlsbad, Calif.). In the case of partial agonist or agonist ligands, addition of compound to the cells leads to the increase in intracellular Ca^+2 which is detected by FLIPR (Fluorescence Imaging Plate Reader; Molecular Devices, Sunnyvale, Calif.) technology. In a similar manner, compounds that are antagonists or inverse agonists, block the increase in fluorescence induced by the full histamine H4 agonist histamine, and partial agonists reduce the amount of fluorescence induced by the full histamine H4 agonist histamine. The fluorescence intensities measured before addition of the test compound are subtracted from the fluorescence intensities at later time points. Peak response values determined at each concentration of ligand are expressed as a percentage of the response obtained with the full agonist histamine. Concentration versus response data are analyzed to obtain compound potency as Kb values for antagonists and inverse agonists and as EC50 values for partial agonists.

For test [2], the target named is T1, histamine H4 receptor. As to the kind of experiment: 3H-histamine competition binding assay. The note with it: membranes of HEK-293 cells transiently transfected with histamine H4 receptor; [3H]-histamine, 25° C., 1 hour; read-out: Binding assay Potency (Ki). How it is done:
The potency of compounds of the invention in displacing ^3H-histamine in competition binding assays is assessed by methods described in Esbenshade, et al., Biochemical Pharmacology (2004), vol. 68, pp. 933-945. In this assay, membranes were prepared from HEK-293 cells transiently transfected with the pClNeo expression vector harboring the histamine H4 receptor by homogenization of the cells on ice in TE buffer (50 mM Tris-HCl buffer, pH 7.4, containing 5 mM EDTA), 1 mM benzamidine, 2 μg/mL aprotinin, 1 μg/mL leupeptin, and 1 μg/mL pepstatin. The homogenate was centrifuged at 40,000 g for 20 minutes at 4° C. This step was repeated, and the resulting pellet was resuspended in TE buffer. Aliquots were frozen at −70° C. until needed. On the day of assay, membranes were thawed and diluted with TE buffer. Competition radioligand binding assays were performed with increasing concentrations of test compound in the presence of [^3H]-histamine incubated at 25° C. for 1 hour in a total volume of 0.5 mL of 50 mM Tris, 5 mM EDTA, pH 7.4. All binding reactions were terminated by filtration under vacuum onto polyethylenimine (0.3%) presoaked Unifilters (PerkinElmer Life Sciences) or Whatman GF/B filters (Whatman, Clifton, N.J.) followed by three brief washes with 4 mL of ice-cold TE buffer. Bound radiolabel was determined by liquid scintillation counting. For all of the radioligand competition binding assays, IC50 values and Hill slopes were determined by Hill transformation of the data and Ki values were determined by the Cheng-Prusoff equation. The following table of representative histamine H4 receptor ligands is provided, along with potency values: […]

Test [3] concerns carrageenan-induced thermal hyperalgesia. As to the kind of experiment: acute model of carrageenan-induced thermal hyperalgesia (hotbox assay). The note with it: assessed 30 minutes after dosing. Format: in vivo. How it is done: To assess the effectiveness of representative compounds of the invention against acute model inflammatory pain, animals were tested in an acute model of carrageenan-induced thermal hyperalgesia (see for example, Honore, et al. Behavioural Brain Research (2006) vol. 167 pp. 355-364; Porreca, et al. Journal of Pharmacology and Experimental Therapeutics (2006) vol. 318 pp. 195-205). Carrageenan was injected into the test paw of the animal, and after 90 minutes, the test drug was administered by intraperitoneal dosing; the effect on thermal hyperalgesia was assessed in a hotbox assay which was done 30 minutes after the intraperitoneal dosing of the test drug, and the MPE (maximal percent effect) reported by comparison to the control paw (not injected with carrageenan), according to 100 times the withdrawal latency of the carrageenan injected paw (in seconds) divided by the withdrawal latency of the control (not injected with carrageenan) paw. […] Representative compounds are active in this model, with preferred compounds of the invention active in the model at doses of about 100 micromoles/kg of body weight.

Setting [4] is: 100 micromole/kg injected intraperitoneally.

T1 sequence (Q9H3N8 whole entry, species assumed): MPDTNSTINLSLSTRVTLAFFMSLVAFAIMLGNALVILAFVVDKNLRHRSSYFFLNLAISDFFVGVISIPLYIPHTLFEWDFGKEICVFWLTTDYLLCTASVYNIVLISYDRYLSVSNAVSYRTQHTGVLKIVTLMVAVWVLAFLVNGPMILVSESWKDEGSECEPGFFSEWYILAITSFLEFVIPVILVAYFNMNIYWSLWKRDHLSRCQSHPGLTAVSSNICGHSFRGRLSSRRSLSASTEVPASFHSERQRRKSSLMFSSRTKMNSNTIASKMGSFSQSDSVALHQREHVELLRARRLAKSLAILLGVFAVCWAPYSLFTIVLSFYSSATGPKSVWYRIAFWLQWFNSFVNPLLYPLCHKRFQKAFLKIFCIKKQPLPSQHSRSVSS

`Nc1nc2c(c(N3CCNCC3)n1)CCC1=C2[C@@H]2CCCC[C@@H]2O1` (single isomer, unassigned) [Example 3, (−)-(7aS*,11aS*)-4-piperazin-1-yl-5,6,7a,8,9,10,11,11a-octahydro[1]benzofuro[2,3-h]quinazolin-2-amine]: the Potency on histamine H4 receptor [1] was 5.9 nM. The Ki on histamine H4 receptor [2] is 16.6 nM. In test [3] (setting [4]), the “MPE (maximal percent effect)” value came to 47%.
For the compound `Nc1nc2c(c(N3CCNCC3)n1)CCC1=C2C2CCCCC2O1` (stereo not shown) [Example 1, 4-piperazin-1-yl-5,6,7a,8,9,10,11,11a-octahydro[1]benzofuro[2,3-h]quinazolin-2-amine], the Potency at histamine H4 receptor [1] stood at 4.7 nM. Moreover, the Ki on histamine H4 receptor [2] worked out at 5.8 nM. Besides, the “MPE (maximal percent effect)” value in test [3] (30 micromole/kg injected intraperitoneally) stood at 48%; in test [3] (setting [4]), 68%.
The compound `Nc1nc2c(c(N3CCNCC3)n1)CCC1=C2[C@H]2CCCC[C@H]2O1` (single isomer, unassigned) [Example 4, (+)-(7aR*,11aR*)-4-piperazin-1-yl-5,6,7a,8,9,10,11,11a-octahydro[1]benzofuro[2,3-h]quinazolin-2-amine] came in with a Potency on histamine H4 receptor [1] of 4.5 nM. Further, the Ki at histamine H4 receptor [2] was 3 nM. Besides, the “MPE (maximal percent effect)” value in test [3] (setting [4]) was determined as 63%.
With `CCNC1CN(c2nc(N)nc3c2CC[C@@H]2CCCC[C@@H]32)C1.O=C(O)C(F)(F)F.O=C(O)C(F)(F)F` (relative stereo) [Example 15, trans-4-[3-(ethylamino)azetidin-1-yl]-5,6,6a,7,8,9,10,10a-octahydrobenzo[h]quinazolin-2-amine bis(trifluoroacetate)], the Potency at histamine H4 receptor [1] is on record as 3.2 nM. In addition, the Ki on histamine H4 receptor [2] turned out to be 1 nM.
The like results for `CN[C@@H]1CCN(c2nc(N)nc3c2CCC2=C3C3CCCCC3O2)C1` (stereo partly drawn) [Example 2, 4-[(3R)-3-(methylamino)pyrrolidin-1-yl]-5,6,7a,8,9,10,11,11a-octahydro[1]benzofuro[2,3-h]quinazolin-2-amine] were, in that order, 5.9 nM and 3.3 nM.
Regarding `CN[C@@H]1CCN(c2nc(N)nc3c2CC[C@@H]2CCCC[C@@H]32)C1` (mixture of isomers) [Example 16, trans-4-[(3R)-3-(methylamino)pyrrolidin-1-yl]-5,6,6a,7,8,9,10,10a-octahydrobenzo[h]quinazolin-2-amine], the Potency on histamine H4 receptor [1] is 1.4 nM. Moreover, at histamine H4 receptor [2], the inhibition constant (Ki) turned out to be 2.6 nM.

The values are drawn from patent US8278311B2, “Substituted pyrimidine derivatives” (Abbott Laboratories, priority 2008, dated 2012).
